Several values for one entry are separate records, joined by “and”; a condition that tells them apart may be missing. Equal entries are not always repeated.

Data on 4 molecules can be found in publication PMC9182347, “α-Glucosidase, α-Amylase and Antioxidant Evaluations of Isolated Bioactives from Wild Strawberry” (Molecules, 2022).

The target of assay [1] is α-glucosidase (Saccharomyces cerevisiae, UniProt P53341). It is filed as biochemical. On the procedure: The α-glucosidase solution (120 μL) of 0.50 U/mL in 0.10 M phosphate buffer (pH 6.90) was prepared and p-nitrophenyl-α-D-glucopyranoside (5 mM) was added as substrate solution. Different concentrations ranging from 62.50 µg/mL to 1000 µg/mL of the crude extracts, semi-purified fractions and isolated compounds of F. indica were prepared accordingly. The plant’s samples (extracts, semi-purified and purified compounds) were mixed with the solutions of enzyme as per the experiment and were incubated at 37 °C.
After initial incubation for 15 min, 20 μL p-nitrophenyl-α-D-glucopyranoside solution was mixed and was again incubated in the same way. Finally, 80 μL solution of sod. carbonate (0.20 M) was added to finish up the reaction. The solution containing all the substrates except α-glucosidase served as a blank. The absorbances of experiments were measured at 405 nm. The experiments were repeated 3 times and the calculations were made as per the standard protocols.
(§1) The half inhibitory concentration (IC50) was calculated using Microsoft Excel program as per our previously reported method.

The subject of assay [2] is α-amylase. Description: In vitro α-amylase inhibition. The format is biochemical. As to conditions: for α-Amylase Percent Inhibition: mean ± SEM, n = 3. The protocol: The amylase solution was prepared in phosphate buffer. The solutions of the F. indica and isolated compounds (62.50 to 1000 µg/mL) were added to the amylase solution and allowed to react. After reaction completion, starch solution was added and incubated as per the standard method. Afterwards, a solution of dinitro-salicylic acid was added to both test and control groups. The final solutions were heated for 3 min in boiling water and the absorbances were measured at […]. The experiments were performed in triplicates and percent inhibitions were calculated.
as §1

The nature of assay [3]: DPPH free radicals scavenging assay. As to conditions: for DPPH Percent Inhibition: mean ± SEM, n = 3. The protocol: The antioxidant activity was carried out for F. indica extracts, semi-purified ethyl acetate fractions and isolated compounds using DPPH free radicals. DPPH solution was prepared (24 mg/100 mL of methanol). Stock solutions (1 mg/mL) of F. indica extracts and isolated compounds were prepared in methanol and then diluted to 1000, 500, 250, 125, 62.5 μg/mL. Sample and DPPH solutions were mixed in a ratio of 1:1 and were incubated at 23 °C for 30 min. Finally, absorbance was measured at 517 nm using UV spectrophotometer (Thermo electron corporation, Waltham, MA, USA). Ascorbic acid was used as positive control. Percent radical scavenging activity was measured using the reported equations [61].
as §1

α-glucosidase, sequence (P53341 whole entry): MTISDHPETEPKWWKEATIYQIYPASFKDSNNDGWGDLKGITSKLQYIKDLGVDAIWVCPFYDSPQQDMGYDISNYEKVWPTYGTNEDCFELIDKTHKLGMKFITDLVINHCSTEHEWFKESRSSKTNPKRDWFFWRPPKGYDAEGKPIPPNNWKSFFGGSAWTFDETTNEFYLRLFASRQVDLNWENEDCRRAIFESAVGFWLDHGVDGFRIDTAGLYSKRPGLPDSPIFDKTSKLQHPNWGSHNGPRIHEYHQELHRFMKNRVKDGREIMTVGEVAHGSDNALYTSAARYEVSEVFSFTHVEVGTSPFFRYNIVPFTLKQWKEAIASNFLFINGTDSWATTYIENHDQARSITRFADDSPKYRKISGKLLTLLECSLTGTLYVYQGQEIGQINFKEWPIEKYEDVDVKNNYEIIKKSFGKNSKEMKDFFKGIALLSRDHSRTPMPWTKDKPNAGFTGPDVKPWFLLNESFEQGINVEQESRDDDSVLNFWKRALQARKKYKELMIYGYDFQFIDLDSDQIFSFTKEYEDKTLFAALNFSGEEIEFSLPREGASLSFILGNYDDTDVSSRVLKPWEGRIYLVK

In the case of `C[C@H]1O[C@H](O[C@H]2[C@H](O)[C@@H](O)[C@@H](O[C@H]3[C@H](O)[C@@H](O)C(O)O[C@@H]3CO)O[C@@H]2CO)[C@H](O)[C@@H](O)[C@@H]1N[C@H]1C=C(CO)[C@@H](O)[C@H](O)[C@H]1O` (stereo partly shown) [Acarbose, acarbose], in assay [1], the “α-Glucosidase Percent Inhibition” value is 96.00 ± 0.30% and 90.61 ± 0.43% and 84.03 ± 0.86% and 77.58 ± 0.77% and 71.48 ± 0.74%. Further, the “α-Amylase Percent Inhibition” value in assay [2] (62.5 μg/mL) worked out at 63.26 ± 0.93%; in assay [2] (125 μg/mL) it was 67.05 ± 0.49%; in assay [2] (250 μg/mL), 71.56 ± 0.49%; in assay [2] (500 μg/mL) it was 74.03 ± 0.64%; in assay [2] (1000 μg/mL), 82.43 ± 0.52%.
As for `O=C1O[C@H]([C@@H](O)CO)C(O)=C1O` [Ascorbic acid], in assay [3], the “DPPH IC50” value was determined as 4.98 µg/mL. In addition, the “DPPH Percent Inhibition” value in assay [3] (62.5 μg/mL) is given as 75.45 ± 0.90%; in assay [3] (125 μg/mL), 77.61 ± 0.43%; in assay [3] (250 μg/mL) it was 82.40 ± 0.20%; in assay [3] (500 μg/mL), 87.08 ± 0.47%; in assay [3] (1000 μg/mL), 91.90 ± 0.96%.
Consider `COc1c(O)c(C)c(Cl)c(OC)c1Cl` [Compound 1, 2,4-dichloro-6-hydroxy-3,5-dimethoxytoluene], for which the “DPPH IC50” value in assay [3] turned out to be 7.62 µg/mL. Also, in assay [2], the “α-Amylase IC50” value was 15.03 µg/mL and 17.65 µg/mL.
In the case of `CC(C)=CC(=O)CC(C)c1ccc(C)cc1` (stereo not shown) [Compound 2, 2-methyl-6-(4-methylphenyl)-2-hepten-4-one], the “DPPH IC50” value in assay [3] worked out at 14.30 µg/mL. Moreover, the “α-Amylase IC50” value in assay [2] came to 16.56 µg/mL.
